Source: patent US20260315462A1, “METHODS OF TREATING RELAPSING MULTIPLE SCLEROSIS USING AN INHIBITOR OF BRUTON'S TYROSINE KINASE” (Genentech, Inc., priority 2023, published 2026)
Values after ≈ are worked out from the molar mass of the structure shown.

Key:
[1] = tested on: new T1-hypointense lesions on MRI; assay: New T1-hypointense lesions on MRI, Phase II RMS study (exploratory endpoint); type: in vivo, human
Description: (§1) This Phase II study was undertaken to evaluate the effect of fenebrutinib on brain magnetic resonance imaging (MRI) in participants with RMS. Participants were randomized to receive either fenebrutinib or placebo. In addition to MRI evaluations, participants were also monitored for other clinical outcomes of disease, including disability progression and MS relapse, as described more fully below.
(§2) Study Design: This clinical trial comprised a double-blind treatment (DBT) phase, where participants were randomized in a 2:1 ratio to receive either 200 mg BID oral fenebrutinib or non-active placebo, administered for 12 weeks. Participants were directed to self-administer two 100 mg tablets in the morning and two 100 mg tablets in the evening by mouth, for a total dose of 400 mg of fenebrutinib (or placebo) every day.
(§3) A total of 109 adults aged 18-55 with RMS were enrolled in the study: 73 in the fenebrutinib arm, and 36 in the placebo arm. […] Accordingly, the analysis of outcome for the double blind phase of the study included 70 patients in the fenebrutinib arm, and 36 patients in the placebo arm.
Exploratory Endpoints: Exploratory endpoints included the total number of new T1-hypointense lesions on MRI at weeks 4, 8, and 12; the fenebrutinib concentration in CSF collected at baseline and at or after Week 12; and plasma pharmacokinetics.
Results: Exploratory Endpoint-Hypointense T1 Lesions: The number of T1 hypointense lesions was evaluated at Week 4, 8, and 12 as an exploratory endpoint. […] FIG. 4 provides bar graphs illustrating some of the data in this table and providing additional analyses. In this figure, the large arrows indicate the relative reduction (95% confidence interval) of lesions. The proportion of patients with new T1 hypointense lesions is the number of participants that have a new lesion at that specific visit alone divided by the number of participants with a scan at that specific visit alone at the indicated week. There was a 58% reduction and only 3.2% of patients with new hypointense T1 lesions at Week 12.

[2] = tested on: inflammatory cytokine production from myeloid cells (including TNF-α); settings: in vitro cell-based experiments; cited from earlier work
[3] = tested on: BTK; settings: anti-IgM induced BTK Y223 autophosphorylation in human whole blood; previously presented Keaney J, et al. 2019; cited from earlier work
[4] = Safety: adverse events in Phase II RMS study; type: in vivo, human; settings: for Patients with ≥1 AE, %: 200 mg BID oral, 12 weeks, placebo 33.3
Description: as §2, §3
Results—Safety Summary: A summary of adverse events (AEs) for patients treated with fenebrutinib, and with placebo, is provided in Table 12.

[5] = tested on: CD63 expression on myeloid lineage cells (basophils); settings: in vitro human whole blood assay; previously presented Weber M S, et al. AAN 2021; cited from earlier work
[6] = tested on: BCR-dependent B-cell proliferation; settings: in vitro cell-based experiments; cited from earlier work
[7] = tested on: new gadolinium-enhancing T1 (T1Gd+) lesions on brain MRI; assay: New gadolinium-enhancing T1 (T1Gd+) lesions on brain MRI, Phase II RMS study (primary endpoint); type: in vivo, human
Description: as §1, §2, §3
MRI Measurements: The primary efficacy endpoint for this study was the total number of new gadolinium-enhancing T1 (T1Gd+) lesions on brain MRI measured at Weeks 4, 8, and 12 of administration. The secondary efficacy outcomes were (1) the total number of new or enlarging T2-weighted lesions on brain MRI measured at Weeks 4, 8, and 12, and (2) the proportion of participants free from any new Gd-enhancing T1 lesions and new or enlarging T2-weighted lesions observed on brain MRI at Weeks 4, 8, and 12. Radiologic evaluation for the primary efficacy parameter was performed using a standardized MRI protocol at screening, and at Weeks 4, 8, and 12 for each participant. […]
Results: Primary Endpoint (Total Number of New T1 Gd+ Lesions at Weeks 4, 8, and 12, combined): The primary endpoint of this study was met. In the treatment arm (n=70), a 69% relative reduction in new T1 Gd+ lesions was observed, compared to placebo, with a p value of 0.0022. FIG. 2 provides bar graphs illustrating some of the data in these tables, and providing additional analyses. In this figure, the large arrows indicate the relative reduction (95% confidence interval) of lesions. The proportion of patients with new T1 Gd+ lesions is the number of participants that have a new lesion at that specific visit alone divided by the number of participants with a scan at that specific visit alone at the indicated week. […] There was a 90% reduction and only 3.2% of patients with new T1 Gd+ Lesions lesions at Week 12.

[8] = Week 12, participants with a new lesion at that visit divided by participants with a scan at that visit
[9] = most common AEs, n = 73, placebo 0
[10] = most common AEs, n = 73, placebo 2.8

C[C@H]1CN(C2COC2)CCN1c1ccc(Nc2cc(-c3ccnc(N4CCn5c(cc6c5CC(C)(C)C6)C4=O)c3CO)cn(C)c2=O)nc1 [Fenebrutinib, (S)-2-(3′-(hydroxymethyl)-1-methyl-5-((5-(2-methyl-4-(oxetan-3-yl)piperazin-1-yl)pyridin-2-yl)amino)-6-oxo-1,6-dihydro-[3,4′-bipyridin]-2′-yl)-7,7-dimethyl-2,3,4,6,7,8-hexahydro-1H-cyclopenta[4,5]pyrrolo[1,2-a]pyrazin-1-one]
effect on T1 hypointense lesions ([1]; Week 4, 8, and 12, compared to placebo): reduced T1 hypointense lesions at all three time points
proportion of patients with new T1 hypointense lesions, Week 12 [1, 8]: 3.2%
patients with new T1 hypointense lesions after Week 4 ([1]; after Week 4 of treatment, compared to placebo): few patients had new lesions after Week 4 of treatment
Relative Reduction of T1 hypointense lesions, Week 4 ([1]; vs placebo, Week 4, 95% CI −106%, 87%): 48%
Relative Reduction of T1 hypointense lesions, Week 8 ([1]; vs placebo, Week 8, 95% CI −62%, 92%): 64%
Relative Reduction of T1 hypointense lesions, Week 12 ([1]; vs placebo, Week 12, 95% CI −131%, 92%): 58%
Relative Reduction of T1 hypointense lesions, Weeks 4, 8, and 12 ([1]; vs placebo, Weeks 4, 8, and 12, 95% CI −12%, 89%): 64%
inflammatory cytokine production from myeloid cells [2]: reduction of inflammatory cytokine production from myeloid cells
IC90, phospho-BTK [3]: 0.0404 µg/mL (≈ 0.0608 µM)
Patients with ≥1 AE, % ([4]; n = 73): 38.4%
Patients with ≥1 AE, % ([4]; n = 73, listed as FEN): 38%
withdrawal: abnormal hepatic transaminase levels ([4]; discontinuation required by protocol): 4
AE grade ([4]; double-blind treatment phase): All AEs were Grade 1 or 2, except for two Grade 3 asymptomatic liver transaminase level elevations
AEs leading to withdrawal from the study ([4]; double-blind treatment phase): four AEs leading to withdrawal from the study
serious AEs or deaths ([4]; double-blind treatment phase): No SAEs were reported
serious AEs or deaths ([4]; double-blind treatment phase, listed as FEN): No serious AEs or deaths were reported
rate of infections ([4]; fenebrutinib vs placebo arms): balanced between the fenebrutinib and placebo arms
hepatic transaminase level elevations, character ([4]; fenebrutinib-treated patients): reversible and asymptomatic
withdrawal: hypersensitivity ([4]; in vivo): 1
withdrawal: upper abdominal pain ([4]; in vivo): 1
withdrawal: upper abdominal pain; nausea and headache ([4]; in vivo): 1
Abnormal hepatic enzyme levels, % [4, 9]: 5.5%
Nasopharyngitis, % [4, 9]: 2.7%
Upper abdominal pain, % [4, 9]: 2.7%
Headache, % [4, 10]: 4.1%
Nausea, % [4, 10]: 2.7%
Pharyngitis, % [4, 10]: 2.7%
Urinary tract infection, % ([4]; most common AEs, n = 73, placebo 5.6): 5.5%
Patients with ≥1 AE leading to dose interruption, n (%) ([4]; n = 73): 0
Patients with ≥1 AE with fatal outcome, n (%) ([4]; n = 73): 0
Patients with ≥1 SAE, n (%) ([4]; n = 73): 0
Patients with ≥1 Grade 3 AE, % ([4]; n = 73, placebo 0): 2.7%
Patients withdrawn from study due to an AE, % ([4]; n = 73, placebo 0): 9.6%
Patients with ≥1 Related AE, % ([4]; n = 73, placebo 5.6): 13.7%
Total no. of AEs ([4]; n = 73, placebo 19): 40
IC90, CD63 (myeloid lineage cell activation marker) [5]: 0.0412 µg/mL (≈ 0.062 µM)
BCR-dependent B-cell proliferation [6]: inhibition of BCR-dependent B-cell proliferation
Number of New T1 Gd+ Lesions, Mean (SD), Week 4 ([7]; 200 mg BID oral, Week 4, n = 70, min-max 0-4, placebo 0.389 (0.871)): 0.343 (0.849)
Number of New T1 Gd+ Lesions, Mean (SD), Week 8 ([7]; 200 mg BID oral, Week 8, n = 67, min-max 0-3, placebo 0.441 (0.960)): 0.045 (0.367)
Number of New T1 Gd+ Lesions, Mean (SD), Week 12 ([7]; 200 mg BID oral, Week 12, n = 63, min-max 0-1, placebo 0.273 (0.674)): 0.032 (0.177)
Total Number of New T1Gd+ Lesions ([7]; 200 mg BID oral, Weeks 4, 8, and 12 combined, N = 70, 201 scans, placebo 38): 29
New T1Gd+ Lesion rate, adjusted ([7]; 200 mg BID oral, Weeks 4, 8, and 12 combined, Negative Binomial regression model, placebo 0.245): 0.077
New T1Gd+ Lesion rate, unadjusted ([7]; 200 mg BID oral, Weeks 4, 8, and 12 combined, total lesions divided by total number of scans, placebo 0.369): 0.144
proportion of patients with new T1 Gd+ lesions, Week 12 [7, 8]: 3.2%
patients with new T1 Gd+ lesions after week four ([7]; after week four of treatment): Few patients had new lesions after week four of treatment
Relative Reduction of total number of new T1 Gd+ lesions, Week 4 ([7]; vs placebo, Week 4, 95% CI −92%, 68%): 22%
Relative Reduction of total number of new T1 Gd+ lesions, Week 8 ([7]; vs placebo, Week 8, 95% CI 65%, 98%): 92%
Relative Reduction of total number of new T1 Gd+ lesions, Week 12 ([7]; vs placebo, Week 12, 95% CI 52%, 98%): 90%
Rate Ratio, adjusted (new T1Gd+ lesions) ([7]; vs placebo, Weeks 4, 8, and 12 combined, 95% CI (0.149, 0.658)): 0.313
Relative Reduction in new T1 Gd+ lesions ([7]; vs placebo, Weeks 4, 8, and 12 combined, 95% CI (34%, 85%), p-value 0.0022): 69%
Relative Reduction of total number of new T1 Gd+ lesions, Weeks 8 and 12 ([7]; vs placebo, Weeks 8 and 12): 92%
